Experimental data reported in patent publication US20070026080A1, “Manufacturing process for tigecycline” (Wyeth, priority 2005, published 2007).

Assay: Strength and degradation profile of tigecycline 20 mg/mL bulk solutions by reversed phase HPLC (effect of temperature, time, pH, dissolved oxygen; Runs A to O)
Assay type: physicochemical
Settings: 20 mg/mL, 5° C., pH 7.9, Oxygen 1.0 mg/L
Experimental: The contents of the sample vials are dissolved in diluent. The sample solution is diluted, if necessary, and chromatographed on a reversed phase column using gradient elution. Impurities are determined by comparing the impurity peak areas in the sample preparation chromatogram to the average area of tigecycline peaks in the standard preparation chromatograms obtained concomitantly.
Chromatographic Column—Length about 15 cm, inside diameter about 4.6 mm, packed with Inertsil ODS2, 5 μm size particles or equivalent.
Detector—Ultraviolet spectrophotometric detector capable of operating at 248 nm with a sensitivity of about 0.5 absorbance units full scale.
The results of additional studies to investigate the effect of processing parameters such as temperature, time, and dissolved oxygen content on the purity profile of tigecycline solutions using the following materials, methods and procedures are presented in Tables A to O.
The experiments were run in plastic glove bags under normal laboratory light conditions. Plastic glove boxes will be used to control the headspace of the beakers. The batch size was 200 mL. • 1. Prepare the glove bag with a mixture of nitrogen and air to achieve an oxygen level in the solution as per the design. • 2. Place the jacketed beaker on the magnetic stirrer. Connect it to the cooler. Set the cooler to the desired set point. • 3. Add 200 mL of SWFI in to the beaker. Allow equilibrating. Measure the temperature and oxygen content. When it reaches the desired condition, add accurately weighed API and mix until dissolved. If necessary use spatula to aid dissolution. For pH adjustments, use 4 mL of either 0.1N NaOH or 0.1N HCl and 196 mL of WFI for manufacture. • 4. After complete dissolution, Transfer about 5.5 mL of Solution in vials and stopper them. These vials will be stoppered at the appropriate headspace conditions. Place the vials in appropriate temperature conditions. • 5. Sample the vials at 1, 4, 8, 10, 12 and 24 hours. Send the samples for analysis. Freeze the 10, 12 and 24 samples at −20° C. for analysis the following day. • 6. Measure pH and record color of the solution at each time point. Results
The 1-hour samples were taken directly from the beakers. Samples for later time points were collected in stoppered vials processed in the atmosphere of the bag in order to simulate the headspace conditions then placed in water baths or refrigerator to maintain there respective temperature conditions. This was done to maintain safety in the lab. Disposable plastic glove bags require constant flow of a mixture of nitrogen and air to maintain headspace oxygen level that will result in the desired dissolved oxygen (DO) content in the sample. The pH of samples was measured at each sample points.
Strength and degradation profile was analyzed by HPLC as described above. […] Degradation was slightly higher at higher temperature condition.

[1] = Run #H, hours 1,4,8,10,12,24 at r6-r11, 4 h
[2] = Run #H, hours 1,4,8,10,12,24 at r6-r11, 10 h
[3] = Run #H, hours 1,4,8,10,12,24 at r6-r11, 12 h
[4] = Run #H, hours 1,4,8,10,12,24 at r6-r11, 24 h
[5] = Run #H, hours 1,4,8,10,12,24 at r17-r22, 1 h
[6] = Run #H, hours 1,4,8,10,12,24 at r17-r22, 4 h
[7] = Run #H, hours 1,4,8,10,12,24 at r17-r22, 8 h
[8] = Run #H, hours 1,4,8,10,12,24 at r17-r22, 10 h
[9] = Run #H, hours 1,4,8,10,12,24 at r17-r22, 12 h
[10] = Run #H, hours 1,4,8,10,12,24 at r17-r22, 24 h
[11] = Run #I, hours 1,4,8,10,12,24 at r6-r11, 1 h
[12] = Run #I, hours 1,4,8,10,12,24 at r6-r11, 4 h
[13] = Run #I, hours 1,4,8,10,12,24 at r6-r11, 8 h
[14] = Run #I, hours 1,4,8,10,12,24 at r6-r11, 10 h
[15] = Run #I, hours 1,4,8,10,12,24 at r6-r11, 12 h

## CN(C)c1cc(NC(=O)CNC(C)(C)C)c(O)c2c1C[C@H]1C[C@H]3[C@H](N(C)C)C(O)=C(C(N)=O)C(=O)[C@@]3(O)C(O)=C1C2=O [Tigecycline]
[1]
  RRT 0.74 Epimer: 0.20%
  Strength: 19.441 mg/mL
Run #H, hours 1,4,8,10,12,24 at r6-r11, 8 h
  Strength: 19.361 mg/mL
[2]
  RRT 0.74 Epimer: 0.25%
  Strength: 19.447 mg/mL
[3]
  RRT 0.74 Epimer: 0.27%
  Strength: 20.119 mg/mL
[4]
  RRT 0.74 Epimer: 0.23%
  Strength: 19.319 mg/mL
Run #H, hours 1,4,8,10,12,24 at r17-r22
  RRT 0.78 MW = 557: BRL (BRL means below reporting limit (meaning less than 0.05% of tigecycline peak))
[5]
  RRT 1.45: 0.09%
  RRT 1.64 Mino: 0.12%
  RRT 1.85 MW = 597: 0.07%
  Total: 0.60%
[6]
  RRT 1.45: 0.07%
  RRT 1.64 Mino: 0.09%
  RRT 1.85 MW = 597: 0.08%
  Total: 0.70%
[7]
  RRT 1.64 Mino: 0.10%
  Total: 0.66%
[8]
  RRT 1.64 Mino: 0.11%
  Total: 0.90%
[9]
  RRT 1.85 MW = 597: 0.09%
  Total: 0.87%
[10]
  RRT 1.45: 0.05%
  RRT 1.64 Mino: 0.15%
  RRT 1.85 MW = 597: 0.10%
  Total: 1.03%
Run #I, hours 1,4,8,10,12,24 at r6-r11
  RRT 0.64 9-Amino: BRL (BRL means below reporting limit (meaning less than 0.05% of tigecycline peak))
[11]
  RRT 0.58: 0.08%
  RRT 0.74 Epimer: 0.19%
  Strength: 19.263 mg/mL
[12]
  RRT 0.58: 0.09%
  RRT 0.74 Epimer: 0.21%
  Strength: 19.361 mg/mL
[13]
  RRT 0.58: 0.06%
  RRT 0.74 Epimer: 0.18%
  Strength: 19.131 mg/mL
[14]
  RRT 0.74 Epimer: 0.29%
  Strength: 19.204 mg/mL
[15]
  RRT 0.58: 0.07%
  RRT 0.74 Epimer: 0.26%
